Where two headings read alike, the source gives them in different places.
Tests used:
Experiment in all cases: MTT growth inhibition assay
Format in all cases: cell-based, human
[1] = system: BEAS-2B; conditions: normal cells, 72 hr, read-out: Growth inhibitory activity (IC50)
Description: (§1) Several of the disclosed compounds were also tested for their ability to inhibit the growth of other cancer cell lines as shown in Tables 4 and 5. The cell lines were obtained from the American Type Culture Collection (Rockville, Md.) and were grown as follows: MCF-7 (p53 wt) breast cancer cells were grown in DMEM media containing 1 mM non-essential amino acids, Earle's BSS, 1 mM Na pyruvate, and 10 mg/L bovine insulin. MDA-MB-468 (p53 mt) cells were grown in DMEM/F-12 Ham's media (1:1 mixture); H838 (p53 wt) cells were grown in RPMI 1640. H358 (p53 null), H1299 (p53 null) cells were grown in RPMI 1640 supplemented with 1.5 g/L Na2CO3; 4.5 g/L glucose, 10 mM HEPES buffer, 1 mM Na pyruvate and 2 mM L-glutamine. A549 (p53 wt) cells were grown in Ham's F12K medium supplemented with 2 mM L-glutamine and 1.5 g/L Na2CO3; LNCaP (p53 wt) cells were grown in RPMI 1640 supplemented with 1.5 g/L Na2CO3, 4.5 g/L glucose, 10 mM HEPES buffer, 1 mM Na pyruvate and 2 mM L-glutamine. PC3 (p53 null) cells were cultured in Ham's F-12K medium containing 2 mM L-glutamine. TRAMP Cl cells were cultured in DEME medium with 4 mM L-glutamine adjusted to contain 1.5 g/L sodium bicarbonate and 4.5 g/L glucose supplemented with 0.005 mg/ml bovine insulin and 10 nM dehydroisoandrosterone, 5% fetal bovine serum and 5% Nu-Serum IV; HPAC (p53 wt) pancreatic cancer cells were grown in a 1:1 mixture of DMEM and Ham's F12 medium containing 1.2 g/L Na2CO3, 2.5 mM L-glutamine, 15 mM HEPES and 0.5 mM Na pyruvate supplemented with 0.002 mg/mL insulin, 5 μg/mL transferrin, 40 ng/mL hydrocortisone, 10 ng/mL epidermal growth factor and 5% fetal bovine serum. PANC-1 (p53 mt) cells were cultured with RPMI 1640 containing 1 mM HEPES buffer, 25 μg/mL gentamicin, 1.5 g/L Na2CO3 and 0.25 μg/mL amphotericin B. BxPC-3 (p53 mt) cells were grown in RPMI 1640 medium, MiaPaCa-2 (p53 mt) and S2013 (p53 mt) cells were grown in DMEM, cell line CFPAC1 (p53 mt) was grown in Iscove's MEM supplemented with 4 mM L-glutamine; T98G (p53 mt) glioma cells were cultured with DMEM supplemented with 1% Na pyruvate, and 1% non-essential amino acids; HCT116 human colon cancer cell lines were kindly provided by Dr. Bert Vogelstein (Johns Hopkins Oncology Center, Baltimore, Md.). The HCT116 cell line was maintained in McCoy's-5A media; Human bronchial epithelial cell line BEAS 2B was cultured in DMEM medium; Human mammary epithelial cell line MCF10A was cultured in a 1:1 mixture of DMEM and Ham's F12 medium containing 5% horse serum, 15 mM hepes buffer, 10 ug/ml insulin, 20 ng/ml EGF, 100 ng/ml choleratoxin and 0.5 ug/ml hydrocortisone; the human primary fibroblast cell lines IMR90-EEA and IMR90-E1A (transformed using the adenoviral oncogene E1A) were gifts from Dr. S. Lee (Harvard University, Boston, Mass.). IMR90 and IMR90-E1A cells were cultured in DMEM medium.
(§2) All media contained 10% FBS and 1% penicillin/streptomycin unless otherwise specified. The effects of disclosed compounds on human cancer cell growth, expressed as the percentage of cell survival, were determined by the MTT [3-(4,5-Dimethyl-2-thiazolyl)-2,5-diphenyl-2H-tetrazolium bromide] assay. Cells were grown in 96-well plates and exposed to the test compounds (0, 0.01, 0.1, 1, 10, 100 μM) for 72 hr followed by addition of 10 μL MTT solution (5 mg/mL; Sigma; St. Louis, Mo.) to each well. The plates were incubated for 2-4 hr at 37° C. The supernatant was then removed and formazan crystals were dissolved with 100 μL of DMSO. The absorbance at 570 nm was recorded with an OPTImax microplate reader (Molecular Devices; Sunnyvale, Calif.). The cell survival percentages were calculated by dividing the mean OD of compound containing wells by that of DMSO-control wells. Three separate experiments were accomplished to determine the IC50.

[2] = system: BXPC3; conditions: 72 hr, read-out: Growth inhibitory activity (IC50)
Description: as §1, §2

[3] = system: CFPAC1; conditions: 72 hr, read-out: Growth inhibitory activity (IC50)
Description: as §1, §2

[4] = system: H1299; conditions: 72 hr, read-out: Growth inhibitory activity (IC50)
Description: as §1, §2

[5] = system: H358; conditions: 72 hr, read-out: Growth inhibitory activity (IC50)
Description: as §1, §2

[6] = system: H838; conditions: 72 hr, read-out: Growth inhibitory activity (IC50)
Description: as §1, §2

[7] = system: HPAC; conditions: cancer cell, 72 hr, read-out: Growth inhibitory activity (IC50)
Description: as §1, §2

[8] = system: IMR90-EEA; conditions: normal cells, 72 hr, read-out: Growth inhibitory activity (IC50)
Description: as §1, §2

[9] = system: LNCaP; conditions: cancer cell, 72 hr, read-out: Growth inhibitory activity (IC50)
Description: as §1, §2

[10] = system: MCF10A; conditions: normal cells, 72 hr, read-out: Growth inhibitory activity (IC50)
Description: as §1, §2

[11] = system: MDA-MB-468; conditions: MDA-MB-468, cancer cell, 72 hr, read-out: Growth inhibitory activity (IC50)
Description: as §1, §2

[12] = system: Mia-paca; conditions: 72 hr, read-out: Growth inhibitory activity (IC50)
Description: as §1, §2

[13] = system: Panc-1; conditions: Panc-1, cancer cell, 72 hr, read-out: Growth inhibitory activity (IC50)
Description: as §1, §2

[14] = system: S2013; conditions: S2013, cancer cell, 72 hr, read-out: Growth inhibitory activity (IC50)
Description: as §1, §2

[15] = system: U87MG; conditions: cancer cell, 72 hr, read-out: Growth inhibitory activity (IC50)
[16] = Homo sapiens, BXPC-3, BXPC3, cancer cell
[17] = Homo sapiens, CFPAC-1, CFPAC1, cancer cell
[18] = Homo sapiens, NCI-H1299, H1299, cancer cell
[19] = Homo sapiens, NCI-H358, H358, cancer cell
[20] = Homo sapiens, NCI-H838, H838, cancer cell
[21] = Homo sapiens, MIA PaCa-2, cancer cell

SMILES | IC50 [1] [nM] | IC50 ([2]; BXPC3, cancer cell) [nM] | IC50 ([3]; CFPAC1, cancer cell) [nM] | IC50 ([4]; H1299, cancer cell) [nM] | IC50 ([5]; H358, cancer cell) [nM] | IC50 ([1]; Homo sapiens) [nM] | IC50 [2, 16] [nM] | IC50 [3, 17] [nM] | IC50 [4, 18] [nM] | IC50 [5, 19] [nM] | IC50 [6, 20] [nM] | IC50 ([7]; Homo sapiens) [nM] | IC50 ([8]; Homo sapiens) [nM] | IC50 ([9]; Homo sapiens) [nM] | IC50 ([10]; Homo sapiens, MCF-10A) [nM] | IC50 ([11]; Homo sapiens) [nM] | IC50 [12, 21] [nM] | IC50 ([13]; Homo sapiens) [nM] | IC50 ([14]; Homo sapiens) [nM] | IC50 ([15]; Homo sapiens, U-87 MG) [nM] | also measured
O=C1C(NCc2ccccc2)=CC2=NCCc3c[nH]c1c32 [Compound 4c] | 1440 | 2870 | 8770 | 1420 | 436 | – | – | – | – | – | – | – | – | – | – | – | – | – | – | – | IC50 ([6]; H838, cancer cell): 160 nM; IC50 [7]: 689 nM; IC50 [8]: 2770 nM; IC50 [9]: 2750 nM; IC50 [10]: 5270 nM; IC50 [11]: 126 nM; IC50 ([12]; cancer cell): 345 nM; IC50 [13]: 141 nM; IC50 [14]: 3850 nM; IC50 [15]: 2880 nM
O=C(O)C(F)(F)F.O=C1C(NCCc2ccc3c(c2)OCO3)=CC2=NCCc3c[nH]c1c32 [Compound 6] | – | – | – | – | – | 2240 | 3210 | 9100 | 5940 | 1200 | 665 | 2920 | 5700 | 3960 | 13100 | 428 | 2740 | 587 | 11200 | 5640 | –
O=C1C(NCCc2ccccc2)=CC2=NCCc3c[nH]c1c32 [Compound 4d] | 695 | 2940 | 5110 | 4270 | 398 | – | – | – | – | – | – | – | – | – | – | – | – | – | – | – | IC50 ([6]; H838, cancer cell): 260 nM; IC50 [7]: 1130 nM; IC50 [8]: 3770 nM; IC50 [9]: 161 nM; IC50 [10]: 6820 nM; IC50 [11]: 101 nM; IC50 ([12]; cancer cell): 982 nM; IC50 [13]: 258 nM; IC50 [14]: 5390 nM; IC50 [15]: 4280 nM
COc1ccc(CCNC2=CC3=NCCc4c[nH]c(c43)C2=O)cc1OC.O=C(O)C(F)(F)F [Compound 20] | – | – | – | – | – | 1690 | 5010 | 4270 | 5990 | 983 | 838 | 2850 | 2880 | 24500 | 3400 | 277 | 1320 | 720 | 29600 | 3040 | –
O=C(O)C(F)(F)F.O=C1C(NCc2ccc(F)cc2)=CC2=NCCc3c[nH]c1c32 [Compound 28] | – | – | – | – | – | 587 | 2300 | 5400 | 968 | 170 | 110 | 535 | 1490 | 1290 | 5330 | 125 | 315 | 104 | 4450 | 1710 | –

From patent publication US20100144779A1, “Marine Alkalod Makaluvamines and Derivatives Thereof” (THE UAB RESEARCH FOUNDATION, priority 2007, published 2010)
